{
  "source": "BindingDB's records for doi:10.1016/j.bmcl.2011.09.060",
  "about": "(Second Military Medical University, 2011)",
  "target": "Acrosin (Homo sapiens, UniProt P10323)",
  "sequence (P10323 20-42 limits assumed)": "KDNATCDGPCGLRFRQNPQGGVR",
  "sequence (P10323 43-343 limits assumed)": "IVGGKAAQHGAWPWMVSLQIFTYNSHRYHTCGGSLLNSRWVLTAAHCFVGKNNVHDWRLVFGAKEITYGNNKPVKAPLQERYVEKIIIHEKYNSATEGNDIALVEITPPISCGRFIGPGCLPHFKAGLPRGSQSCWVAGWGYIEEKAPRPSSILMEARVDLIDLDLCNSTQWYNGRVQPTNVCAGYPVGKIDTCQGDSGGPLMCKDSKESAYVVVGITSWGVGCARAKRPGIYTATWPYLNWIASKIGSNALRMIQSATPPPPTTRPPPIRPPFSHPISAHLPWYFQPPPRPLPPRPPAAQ",
  "experiment": "Inhibition of acrosin activity in human spermatozoa using N-alpha-benzoyl-DL-arginine para-nitroanilide-HCI as a substrate after 3 hrs by spectrophotometric analysis",
  "data": [
    {"molecule": "Cc1cc(C)c(C(=O)Nc2ccc(S(=O)(=O)NC(=N)N)cc2)c(C)c1", "values": [
      {"measurement": "IC50", "result": 2.45, "unit": "mM"}
    ]},
    {"molecule": "N=C(N)NS(=O)(=O)c1ccc(NC(=O)c2ccc(Cl)cc2Cl)cc1", "values": [
      {"measurement": "IC50", "result": 5.63, "unit": "mM"}
    ]},
    {"molecule": "Cc1cccc(OCC(=O)Nc2ccc(S(=O)(=O)N=C(N)N)cc2)c1", "values": [
      {"measurement": "IC50", "result": 8.92, "unit": "mM"}
    ]},
    {"molecule": "N=C(N)NS(=O)(=O)c1ccc(NC(=O)c2cccc(Cl)c2)cc1", "values": [
      {"measurement": "IC50", "result": 7, "unit": "mM"}
    ]},
    {"molecule": "CCOc1ccc(C(=O)Nc2ccc(S(=O)(=O)NC(=N)N)cc2)cc1", "values": [
      {"measurement": "IC50", "result": 0.13, "unit": "mM"}
    ]},
    {"molecule": "NC(N)=NS(=O)(=O)c1ccc(NC(=O)c2ccc(Cl)c(Cl)c2)cc1", "values": [
      {"measurement": "IC50", "result": 3.8, "unit": "mM"}
    ]},
    {"molecule": "N=C(N)NS(=O)(=O)c1ccc(NC(=O)c2ccccc2Br)cc1", "values": [
      {"measurement": "IC50", "result": 7.63, "unit": "mM"}
    ]},
    {"molecule": "N=C(N)NS(=O)(=O)c1ccc(NC(=O)COc2ccc([N+](=O)[O-])cc2)cc1", "values": [
      {"measurement": "IC50", "result": 4.2, "unit": "mM"}
    ]},
    {"molecule": "COc1ccc(C(=O)Nc2ccc(S(=O)(=O)NC(=N)N)cc2)cc1", "values": [
      {"measurement": "IC50", "result": 2.21, "unit": "mM"}
    ]},
    {"molecule": "NC(N)=NS(=O)(=O)c1ccc(NC(=O)c2c(Cl)cccc2Cl)cc1", "values": [
      {"measurement": "IC50", "result": 5.96, "unit": "mM"}
    ]},
    {"molecule": "CCCC(=O)Nc1ccc(S(=O)(=O)NC(=N)N)cc1", "values": [
      {"measurement": "IC50", "result": 9.58, "unit": "mM"}
    ]},
    {"molecule": "COC(=O)c1ccc(OC(=O)c2ccc(NC(=N)N)cc2)cc1", "values": [
      {"measurement": "IC50", "result": 0.027, "unit": "mM"}
    ]},
    {"molecule": "N=C(N)NS(=O)(=O)c1ccc(NC(=O)c2c(F)cccc2F)cc1", "values": [
      {"measurement": "IC50", "result": 7.18, "unit": "mM"}
    ]},
    {"molecule": "NC(N)=NS(=O)(=O)c1ccc(NC(=O)c2cc([N+](=O)[O-])cc([N+](=O)[O-])c2)cc1", "values": [
      {"measurement": "IC50", "result": 2.5, "unit": "mM"}
    ]},
    {"molecule": "COc1ccc(OCC(=O)Nc2ccc(S(=O)(=O)N=C(N)N)cc2)cc1", "values": [
      {"measurement": "IC50", "result": 9.84, "unit": "mM"}
    ]},
    {"molecule": "CC1CCCCN1CC(=O)Nc1ccc(S(=O)(=O)N=C(N)N)cc1", "note": "(stereo unspecified)", "values": [
      {"measurement": "IC50", "result": 9.9, "unit": "mM"}
    ]},
    {"molecule": "CCC(=O)Nc1ccc(S(=O)(=O)N=C(N)N)cc1", "values": [
      {"measurement": "IC50", "result": 9, "unit": "mM"}
    ]},
    {"molecule": "Cc1ccc(OCC(=O)Nc2ccc(S(=O)(=O)N=C(N)N)cc2)cc1", "values": [
      {"measurement": "IC50", "result": 8.98, "unit": "mM"}
    ]},
    {"molecule": "CC(C)OC(=O)C1CCN(CC(=O)Nc2ccc(S(=O)(=O)NC(=N)N)cc2)CC1", "values": [
      {"measurement": "IC50", "result": 2.35, "unit": "mM"}
    ]},
    {"molecule": "CC(C)CCOC(=O)C1CCN(CC(=O)Nc2ccc(S(=O)(=O)NC(=N)N)cc2)CC1", "values": [
      {"measurement": "IC50", "result": 2.51, "unit": "mM"}
    ]},
    {"molecule": "CCCCC(=O)Nc1ccc(S(=O)(=O)NC(=N)N)cc1", "values": [
      {"measurement": "IC50", "result": 1.58, "unit": "mM"}
    ]},
    {"molecule": "CCOC(=O)C1CCN(CC(=O)Nc2ccc(S(=O)(=O)N=C(N)N)cc2)CC1", "values": [
      {"measurement": "IC50", "result": 2.99, "unit": "mM"}
    ]},
    {"molecule": "N=C(N)NS(=O)(=O)c1ccc(NC(=O)c2cccc(C(F)(F)F)c2)cc1", "values": [
      {"measurement": "IC50", "result": 7.05, "unit": "mM"}
    ]},
    {"molecule": "COC(=O)C1CCN(CC(=O)Nc2ccc(S(=O)(=O)NC(=N)N)cc2)CC1", "values": [
      {"measurement": "IC50", "result": 9.3, "unit": "mM"}
    ]},
    {"molecule": "CC1CCN(CC(=O)Nc2ccc(S(=O)(=O)NC(=N)N)cc2)CC1", "values": [
      {"measurement": "IC50", "result": 4.98, "unit": "mM"}
    ]},
    {"molecule": "Cc1ccccc1OCC(=O)Nc1ccc(S(=O)(=O)NC(=N)N)cc1", "values": [
      {"measurement": "IC50", "result": 9.3, "unit": "mM"}
    ]},
    {"molecule": "N=C(N)NS(=O)(=O)c1ccc(NC(=O)COc2ccccc2)cc1", "values": [
      {"measurement": "IC50", "result": 2.3, "unit": "mM"}
    ]},
    {"molecule": "N=C(N)NS(=O)(=O)c1ccc(NC(=O)COc2ccc(Cl)cc2)cc1", "values": [
      {"measurement": "IC50", "result": 9.35, "unit": "mM"}
    ]},
    {"molecule": "N=C(N)NS(=O)(=O)c1ccc(NC(=O)c2ccc(CCl)cc2)cc1", "values": [
      {"measurement": "IC50", "result": 3.84, "unit": "mM"}
    ]},
    {"molecule": "N=C(N)NS(=O)(=O)c1ccc(NC(=O)c2ccc(F)cc2)cc1", "values": [
      {"measurement": "IC50", "result": 7.11, "unit": "mM"}
    ]},
    {"molecule": "CCCOC(=O)C1CCN(CC(=O)Nc2ccc(S(=O)(=O)N=C(N)N)cc2)CC1", "values": [
      {"measurement": "IC50", "result": 3.31, "unit": "mM"}
    ]},
    {"molecule": "CCc1ccc(C(=O)Nc2ccc(S(=O)(=O)N=C(N)N)cc2)cc1", "values": [
      {"measurement": "IC50", "result": 0.21, "unit": "mM"}
    ]},
    {"molecule": "Cc1ccc(C(=O)Nc2ccc(S(=O)(=O)NC(=N)N)cc2)cc1", "values": [
      {"measurement": "IC50", "result": 2.06, "unit": "mM"}
    ]},
    {"molecule": "N=C(N)NS(=O)(=O)c1ccc(NC(=O)c2ccccc2Cl)cc1", "values": [
      {"measurement": "IC50", "result": 6.3, "unit": "mM"}
    ]},
    {"molecule": "CCCCOC(=O)C1CCN(CC(=O)Nc2ccc(S(=O)(=O)NC(=N)N)cc2)CC1", "values": [
      {"measurement": "IC50", "result": 9.5, "unit": "mM"}
    ]},
    {"molecule": "NC(N)=NS(=O)(=O)c1ccc(NC(=O)CN2CCCCC2)cc1", "values": [
      {"measurement": "IC50", "result": 7.41, "unit": "mM"}
    ]}
  ]
}
